Patent US4771057A, “Reduced pyridyl derivatives with cardiovascular regulating properties” (University of Alberta, priority 1986, dated 1988)
Like-named read-outs stand apart in the source and are kept apart here.

System: guinea pig ileal longitudinal smooth muscle
Assay: Calcium channel antagonist testing: inhibition of muscarinic receptor-mediated Ca2+-dependent contraction (response to CD) of guinea pig ileal longitudinal smooth muscle
Type: cell-based
Conditions: for IC50: 50% inhibition of tonic contraction to CD 5×10^-7 M, compound added 10 min before CD, 37° C., pH 7.4, read-out: Calcium channel antagonist act., inhib. act. on contractile response to CD, ID50; for calcium channel antagonist activity, comparison to Nifedipine (TM): conclusion from Table 7
Description: Male albino guinea pigs (body weight 300-450 g) were sacrificed by decapitation. The intestine was removed above the ileo-caecal junction. Longitudinal smooth muscle segments of 2 cm length were mounted under a resting tension of 300-400 mg. […] The muscles were equilibrated for 1 h with a solution change every 15 min. Two successive control contractions were elicited at 15 min intervals with 5×10^-7 M cis-2-methyl- 4-dimethylaminomethyl-1,3-dioxolane methiodide (CD). The isometric contractions were recorded with a force displacement transducer (FT 03C) on a GRASS physiograph. The means of the two contractile responses was taken as the 100% value for the tonic (slow) component of the response. The muscle was washed with Hepes saline solution and was allowed to re-equilibrate. The calcium antagonist (test compound) was added ten min before the dose-response for CD was determined. The drug-induced inhibition of contraction was expressed as percent of control. The ID50 values were graphically determined from the concentration-response curves.

Row | Compound | IC50 (Cavia porcellus) | IC50 | calcium channel antagonist activity, comparison to Nifedipine (TM)
1 | COC(=O)C1=C(C)NC(C)=C(C(=O)OC)C1c1cccnc1 [Compound D-5, 3,5-Dimethyl 2,6-dimethyl-4-(3'-pyridyl)-1,4-dihydropyridine-3,5-dicarboxylate] | 3.83 µM | – | –
2 | Diethyl 2,6-dimethyl-4-{3'-[N--methoxycarbonyl-1',2'-(1',6'-)dihydropyridyl]}-1,4-dihydropyridine-3,5-dicarboxylate [Compound D-33] | – | 0.18 µM | active calcium channel antagonists, being comparable to Nifedipine (TM)
3 | CC1=C(C(=O)OCC(C)C)C(C2=CCN(C(=O)Oc3ccccc3)C=C2)C(C(=O)OCC(C)C)=C(C)N1 [Compound D-56, Diisobutyl 2,6-dimethyl-4-[4'-(N--phenoxycarbonyl)]-1,4-di-hydropyridine-3,5-dicarboxylate] | 0.51 µM | – | active calcium channel antagonists, being comparable to Nifedipine (TM)
4 | CC1=C(C#N)C(c2ccncc2)C(C#N)=C(C)N1 [Compound D-28, 3,5-dicyano-2,6-dimethyl-4-(4'-pyridyl)-1,4-dihydropyridine] | 130 µM | – | –
5 | COC(=O)N1C=CC(C2C(C#N)=C(C)NC(C)=C2C#N)=CC1 [Compound D-59, 3,5-Dicyano-2,6-dimethyl-4-[4'-(N--methoxycarbonyl)]-1,4-dihydropyridine] | 67.5 µM | – | –
6 | CC1=C(C(=O)OCC(C)C)C(c2ccccn2)C(C(=O)OCC(C)C)=C(C)N1 [Compound D-15, 3,5-Diisobutyl 2,6-dimethyl-4-(2'-pyridyl)-1,4-dihydropyridine-3,5-dicarboxylate] | 0.0936 µM | – | active calcium channel antagonists, being comparable to Nifedipine (TM)
7 | COC(=O)C1=C(C)NC(C)=C(C(=O)OC)C1c1ccncc1 [Compound D-9, 3,5-Dimethyl 2,6-dimethyl-4-(4'-pyridyl)-1,4-dihydropyridine-3,5-dicarboxylate] | 5 µM | – | –
8 | COC(=O)C1=C(C)NC(C)=C(C(=O)OC(C)C)C1c1cccnc1 [Compound D-6, 3-Isopropyl-5-methyl 2,6-dimethyl-4-(3'-pyridyl)-1,4-dihydropyridine-3,5-dicarboxylate] | 0.097 µM | – | active calcium channel antagonists, being comparable to Nifedipine (TM)
9 | 3,5-Dicyano-2,6-dimethyl-4-{3'-[N--methoxycarbonyl-1',2'-(1',6'-)dihydropyridyl]}-1,4-dihydropyridine [Compound D-48] | – | 34 µM | –
10 | CC1=C(C(=O)OC(C)C)C(c2ccncc2)C(C(=O)OC(C)C)=C(C)N1 [Compound D-22, 3,5-Diisopropyl 2,6-dimethyl-4-(4'-pyridyl)-1,4-dihydropyridine-3,5-dicarboxylate] | 0.231 µM | – | active calcium channel antagonists, being comparable to Nifedipine (TM)
11 | CC1=C(C#N)C(c2cccnc2)C(C#N)=C(C)N1 [Compound D-27, 3,5-dicyano-2,6-dimethyl-4-(3'-pyridyl)-1,4-dihydropyridine] | 357 µM | – | –
12 | CC1=C(C(=O)OC(C)C)C(c2ccccc2[N+](=O)[O-])=C(C(=O)OC(C)C)C(C)N1C (centres unmarked) [Compound W-4, Diisopropyl 1,2,6-trimethyl-4-(2-nitrophenyl)-1,2-dihydropyridine-3,5-dicarboxylate] | 5.73 µM | – | –
13 | Diisopropyl 2,6-dimethyl-4-{3'-[N-- phenoxycarbonyl-1',2'-(1',6'-)dihydropyridyl]}-1,4-dihydropyridine-3,5-dicarboxylate [Compound D-38] | – | 1.67 µM | –
14 | COC(=O)C1=C(C)NC(C)=C(C(=O)OCCN(C)C)C1c1cccnc1 [Compound D-8, 3-[2-(N,N--dimethylamino)ethyl]-5-methyl 2,6-dimethyl-4-(3'-pyridyl)-1,4-dihydropyridine-3,5-dicarboxylate] | 33.4 µM | – | –
15 | Diisobutyl 2,6-dimethyl-4-{3'-[N--t-butoxycarbonyl-1',2'-(1',6'-)dihydropyridyl]}-1,4-dihydropyridine-3,5-dicarboxylate [Compound D-42] | – | 3.42 µM | –
16 | CCOC(=O)C1=C(C)NC(C)=C(C(=O)OCC)C1C1=CCN(C)CC1 [Compound D-67, Diethyl 2,6-dimethyl-4-[4'-(N--methyl-1',2',3',6'-tetrahydropyridyl)]-1,4-dihydropyridine-3,5-dicarboxylate] | 4.96 µM | – | –

Further lines, with some results ahead:

Row | IC50 (Cavia porcellus) | IC50 | Compound | calcium channel antagonist activity, comparison to Nifedipine (TM)
17 | – | 0.865 µM | Diethyl 2,6-dimethyl-4-{3'-[N--phenoxycarbonyl-1',2'-(1',6'-)dihydropyridyl]}-1,4-dihydropyridine-3,5-dicarboxylate [Compound D-37] | active calcium channel antagonists, being comparable to Nifedipine (TM)
18 | 0.125 µM | – | CC1=C(C(=O)OC(C)C)C(c2ccccn2)C(C(=O)OC(C)C)=C(C)N1 [Compound D-14, 3,5-Diisopropyl 2,6-dimethyl-4-(2'-pyridyl)-1,4-dihydropyridine-3,5-dicarboxylate] | active calcium channel antagonists, being comparable to Nifedipine (TM)
19 | 13 µM | – | CCOC(=O)C1=C(C)NC(C)=C(C(=O)OCC)C1C1CC=CCN1C [Compound D-65, Diethyl 2,6-dimethyl-4-[2'-(N--methyl-1',2',3',6'-tetrahydropyridyl)]-1,4-dihydropyridine-3,5-dicarboxylate] | –
20 | 56 µM | – | COC(=O)C1=C(C)NC(C)=C(C(=O)OCC(C)C)C1c1cccnc1 [Compound D-7, 3-Isobutyl-5-methyl 2,6-dimethyl-4-(3'-pyridyl)-1,4-dihydropyridine-3,5-dicarboxylate] | active calcium channel antagonists, being comparable to Nifedipine (TM)
21 | 23.5 µM | – | COC(=O)C1=C(C)N(C)C(C)C(C(=O)OC)=C1c1ccc([N+](=O)[O-])cc1 (centres unmarked) [Compound S-4, Dimethyl 1,2,6-trimethyl-4-(4-nitrophenyl)-1,2-dihydropyridine-3,5-dicarboxylate] | –
22 | 12 µM | – | COC(=O)C1=C(C)N(C)C(C)C(C(=O)OC)=C1c1ccccc1C(F)(F)F (centres unmarked) [Compound S-3, Dimethyl 1,2,6-trimethyl-4-(2-trifluoromethylphenyl)-1,2-dihydropyridine-3,5-dicarboxylate] | –
23 | 1.76 µM | – | COC(=O)C1=C(C)NC(C)=C(C(=O)OCC(C)C)C1C1=CCN(C(=O)OC)C=C1 [Compound D-60, 3-Isobutyl-5-methyl 2,6-dimethyl-4-[4'-(N--methoxycarbonyl)]-1,4-dihydropyridine-3,5-dicarboxylate] | –
24 | 1.1 µM | – | CCOC(=O)C1=C(C)NC(C)=C(C(=O)OCC)C1C1=CCCN(C)C1 [Compound D-69, Diethyl 2,6-dimethyl-4-[5'-(N--methyl-1',2',3',6'-tetrahydropyridyl)]-1,4-dihydropyridine-3,5-dicarboxylate] | –
25 | 0.22 µM | – | COC(=O)C1=C(C)NC(C)=C(C(=O)OCC(C)C)C1c1ccncc1 [Compound D-11, 3-Isobutyl-5-methyl 2,6-dimethyl-4-(4'-pyridyl)-1,4-dihydropyridine-3,5-dicarboxylate] | active calcium channel antagonists, being comparable to Nifedipine (TM)
26 | – | 6.46 µM | Diisobutyl 2,6-dimethyl-4-{3'-[N--phenoxycarbonyl-1',2'-(1',6'-)dihydropyridyl]}-1,4-dihydropyridine-3,5-dicarboxylate [Compound D-39] | –
